Experimental data from the supplement of paper PMC13380429.

How the values were obtained:
Conditions in all cases: 72 h
HepG2 [1] = experiment: cell viability relative to DMSO; higher = less toxic
Vero E6 [2] = experiment: as above
Caco-2 [3] = experiment: as above
Calu-3 [4] = experiment: as above
U2OS [5] = experiment: as above
HepG2 [6] = experiment: relative viability EC50 (midpoint between 100% and the lowest measured viability); higher = less toxic
Vero E6 [7] = experiment: as above
Caco-2 [8] = experiment: as above
Calu-3 [9] = experiment: as above
U2OS [10] = experiment: as above
HepG2 [11] = experiment: drug sensitivity score (DSS) for viability; higher = more toxic; extreme values may be limits of the assay
Vero E6 [12] = experiment: as above
Caco-2 [13] = experiment: as above
Calu-3 [14] = experiment: as above
U2OS [15] = experiment: as above

SMILES | cell viability (HepG2 [1]; 1 nM) | cell viability (HepG2 [1]; 10 nM) | cell viability (HepG2 [1]; 100 nM) | cell viability (HepG2 [1]; 1000 nM) | cell viability (HepG2 [1]; 10000 nM) | cell viability (Vero E6 [2]; 1 nM) | cell viability (Vero E6 [2]; 10 nM) | cell viability (Vero E6 [2]; 100 nM) | cell viability (Vero E6 [2]; 1000 nM) | cell viability (Vero E6 [2]; 10000 nM) | cell viability (Caco-2 [3]; 1 nM) | cell viability (Caco-2 [3]; 10 nM) | cell viability (Caco-2 [3]; 100 nM) | cell viability (Caco-2 [3]; 1000 nM) | cell viability (Caco-2 [3]; 10000 nM) | cell viability (Calu-3 [4]; 1 nM) | cell viability (Calu-3 [4]; 10 nM) | cell viability (Calu-3 [4]; 100 nM) | cell viability (Calu-3 [4]; 1000 nM) | cell viability (Calu-3 [4]; 10000 nM) | cell viability (U2OS [5]; 1 nM) | cell viability (U2OS [5]; 10 nM) | cell viability (U2OS [5]; 100 nM) | cell viability (U2OS [5]; 1000 nM) | cell viability (U2OS [5]; 10000 nM) | relative viability EC50 (HepG2 [6]) | relative viability EC50 (Vero E6 [7]) | relative viability EC50 (Caco-2 [8]) | relative viability EC50 (Calu-3 [9]) | relative viability EC50 (U2OS [10]) | drug sensitivity score (HepG2 [11]) | drug sensitivity score (Vero E6 [12]) | drug sensitivity score (Caco-2 [13]) | drug sensitivity score (Calu-3 [14]) | drug sensitivity score (U2OS [15])
CCn1nc(C(=O)O)c(=O)c2cc3c(cc21)OCO3 [cinoxacin] | 100% | 86.1% | 110% | 85.1% | 103% | 91.4% | 102% | 92.1% | 89.4% | 102% | 99.3% | 100% | 100% | 106% | 98.3% | 99.3% | 98.6% | 89.4% | 93.9% | 98.7% | 95.1% | 97.3% | 94.2% | 98.5% | 99.5% | > 10 µM | > 10 µM | > 10 µM | > 10 µM | > 10 µM | 0 | 0 | 0 | 0 | 0
Cn1c(CNc2ccc(C(=N)N)cc2)nc2cc(C(=O)N(CCC(=O)O)c3ccccn3)ccc21 [dabigatran] | 103% | 95.8% | 104% | 97.8% | 91.7% | 96.9% | 96.4% | 99.1% | 101% | 99% | 109% | 97.1% | 101% | 94% | 95.5% | 114% | 99.6% | 90.1% | 93.7% | 92.8% | 104% | 99.3% | 101% | 97.1% | 98.1% | > 10 µM | > 10 µM | > 10 µM | > 10 µM | > 10 µM | 0 | 0 | 0 | 0 | 0
CC1(C)O[C@@H]2C[C@H]3[C@@H]4CCC5=CC(=O)C=C[C@]5(C)[C@H]4[C@@H](O)C[C@]3(C)[C@]2(C(=O)CO)O1 [desonide] | 102% | 101% | 93.9% | 94.6% | 94.6% | 102% | 102% | 101% | 108% | 99.5% | 103% | 106% | 95% | 112% | 120% | 124% | 92.5% | 95% | 101% | 96.9% | 99.5% | 94.9% | 101% | 93.6% | 97.9% | > 10 µM | > 10 µM | > 10 µM | > 10 µM | > 10 µM | 0 | 0 | 0 | 0 | 0
O=c1[nH]cnc2c1ncn2[C@H]1CC[C@@H](CO)O1 [didanosine] | 99.6% | 84.8% | 90.7% | 90.8% | 105% | 96% | 97.3% | 95.2% | 98% | 107% | 107% | 88.7% | 97.9% | 85.3% | 108% | 96.3% | 85% | 114% | 106% | 99.9% | 99.4% | 93.6% | 102% | 101% | 107% | > 10 µM | > 10 µM | > 10 µM | > 10 µM | > 10 µM | 0 | 0 | 0 | 0 | 0
O=c1[nH]c2ccccc2n1CCCN1CCC(n2c(=O)[nH]c3cc(Cl)ccc32)CC1 [domperidone] | 94.6% | 96.4% | 92.3% | 104% | 95.7% | 90% | 93.8% | 95.8% | 96.6% | 89% | 100% | 96.1% | 96.7% | 92.1% | 94.3% | 102% | 94.6% | 105% | 106% | 101% | 103% | 90.7% | 97.6% | 95.6% | 94.2% | > 10 µM | > 10 µM | > 10 µM | > 10 µM | > 10 µM | 0 | 0 | 0 | 0 | 0
CN(C)CC/C=C1/c2ccccc2COc2ccccc21 [doxepin] | 103% | 85.4% | 115% | 97.4% | 99.3% | 100% | 96.8% | 96.7% | 91.1% | 106% | 90.4% | 100% | 97.4% | 102% | 99.6% | 89% | 101% | 97.9% | 97.7% | 89.9% | 94.9% | 101% | 98.7% | 102% | 103% | > 10 µM | > 10 µM | > 10 µM | > 10 µM | > 10 µM | 0 | 0 | 0 | 0 | 0
